# Reference: article PMC7489219 (Molecular Brain, 2020)
# Where a name gives a salt, the structure may show the parent alone.
# System: T1, primary mouse cortical neurons
# T1 construct: primary cortical neurons, DIV 10
# Experiment: cells
# Set-up: Protection from NMDA-induced (30 uM, 10 min) neuronal death; Hoechst nuclear morphology by automated microscopy
# Settings: Cortical neurone, 20 h, read-out: % inhibition, inhibition of NMDA-induced cell death (protection score), 30 min pre-treatment
# How it was run: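 On DIV 10, primary mouse cortical neurons were given compound at 10 μM for 30 min at 37 °C, then 30 μM NMDA for 10 min, washed, and kept 20 h with compound. Dead cells were scored by nuclear morphology, and % protection was derived from survival relative to vehicle + NMDA and untreated controls.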
row,Compound,inhibition at 10 µM [%]
1,O=C(O)c1cc(=O)[nH]c(=O)[nH]1 [Orotic acid (6-Carboxyuracil)],-3.32
2,COc1ccc2ccc(=O)oc2c1CC=C(C)C [Osthole (Osthol)],-1.21
3,CCN(CC)CC#CCOC(=O)C(O)(c1ccccc1)C1CCCCC1 (centres unmarked) [Oxybutynin (Ditropan)],37.3
4,O=C1CCC[C@@H]2[C@H]3CCC[N@+]4([O-])CCC[C@@H](CN12)[C@@H]34 [Oxymatrine (Matrine N-oxide)],-1.44
5,Cc1cc(C(C)(C)C)c(O)c(C)c1CC1=NCCN1 [Oxymetazoline hydrochloride],-9.52
6,CN(C)[C@@H]1C(=O)C(C(N)=O)=C(O)[C@@]2(O)C(=O)C3=C(O)c4c(O)cccc4[C@@](C)(O)[C@H]3[C@H](O)[C@@H]12 [Oxytetracycline (Terramycin)],2.79
7,O=C(O)/C=C/c1ccc(Cn2ccnc2)cc1 [Ozagrel],-9.99
8,CC(=O)O[C@H]1C(=O)[C@@]2(C)[C@H]([C@H](OC(=O)c3ccccc3)[C@]3(O)C[C@H](OC(=O)[C@H](O)[C@@H](NC(=O)c4ccccc4)c4ccccc4)C(C)=C1C3(C)C)[C@]1(OC(C)=O)CO[C@@H]1C[C@@H]2O [Paclitaxel (Taxol)],-12.8
9,COc1ccc(C(C)=O)c(O)c1 [Paeonol (Peonol)],-2.06
10,Cc1nc2n(c(=O)c1CCN1CCC(c3noc4cc(F)ccc34)CC1)CCCC2O (centres unmarked) [Paliperidone (Invega)],-1.54
11,COc1cc2c(cc1OC)-c1cc3ccc(OC)c(OC)c3c[n+]1CC2 [Palmatine chloride],8.5
12,CC(=O)O[C@H]1C[C@@H]2CC[C@@H]3[C@H](CC[C@@]4(C)[C@H]3C[C@H]([N+]3(C)CCCCC3)[C@@H]4OC(C)=O)[C@@]2(C)C[C@@H]1[N+]1(C)CCCCC1 [Pancuronium (Pavulon)],7.54
13,C=C1C(=O)O[C@H]2[C@H]1CC/C(C)=C/CC[C@@]1(C)O[C@@H]21 [Parthenolide ((-)-Parthenolide)],-3.83
14,Cc1ccc(Nc2nccc(N(C)c3ccc4c(C)n(C)nc4c3)n2)cc1S(N)(=O)=O [Pazopanib HCl],-2.36
15,Nc1nc2[nH]cc(CCc3ccc(C(=O)N[C@@H](CCC(=O)O)C(=O)O)cc3)c2c(=O)[nH]1 [Pemetrexed],0.519
16,CCC[C@H](N[C@@H](C)C(=O)N1[C@H](C(=O)O)C[C@@H]2CCCC[C@@H]21)C(=O)OCC [Perindopril Erbumine (Aceon)],-1.31
17,"CCCCC1C(=O)N(c2ccccc2)N(c2ccccc2)C1=O [Phenylbutazone (Butazolidin, Butatron)]",47.4
18,O=C1NC(=O)C(c2ccccc2)(c2ccccc2)N1 [Phenytoin (Lepitoin)],21.2
19,O=C1N=C(O)NC1(c1ccccc1)c1ccccc1 [Phenytoin sodium (Dilantin)],3.12
20,O=C(CCc1ccc(O)cc1)c1c(O)cc(O)cc1O [Phloretin (Dihydronaringenin)],-1.62
21,O=C(CCc1ccc(O)cc1)c1c(O)cc(O)cc1O[C@@H]1O[C@H](CO)[C@@H](O)[C@H](O)[C@H]1O [Phlorizin (Phloridzin)],-2.89

row,Compound,inhibition at 10 µM [%]
1,COc1ccc(-c2nc3cc(C4=NNC(=O)CC4C)ccc3[nH]2)cc1 (centres unmarked) [Pimobendan (Vetmedin)],-0.217
2,O=C(/C=C/C=C/c1ccc2c(c1)OCO2)N1CCCCC1 [Piperine (1-Piperoylpiperidine)],-1.51
3,CN1C(C(=O)Nc2ccccn2)=C(O)c2ccccc2S1(=O)=O [Piroxicam (Feldene)],4.8
4,O=C(O)C[C@H](O)C[C@H](O)/C=C/c1c(C2CC2)nc2ccccc2c1-c1ccc(F)cc1 [Pitavastatin calcium (Livalo)],17.7
5,OC[C@H]1O[C@@H](Oc2cc(O)cc(C=Cc3ccc(O)cc3)c2)[C@H](O)[C@@H](O)[C@@H]1O [Polydatin (Piceid)],1.2
6,CC[C@@H]([C@H](C)O)n1ncn(-c2ccc(N3CCN(c4ccc(OC[C@@H]5CO[C@@](Cn6cncn6)(c6ccc(F)cc6F)C5)cc4)CC3)cc2)c1=O [Posaconazole],-12.5
7,CCCN[C@H]1CCc2nc(N)sc2C1 [Pramipexole dihydrochloride monohydrate],-0.655
8,CC(=O)Oc1cc2c(s1)CCN(C(C(=O)C1CC1)c1ccccc1F)C2 (centres unmarked) [Prasugrel (Effient)],-7.75
9,C[C@]12C=CC(=O)C=C1CC[C@@H]1[C@@H]2[C@@H](O)C[C@@]2(C)[C@H]1CC[C@]2(O)C(=O)CO [Prednisolone (Hydroretrocortine)],4.33
10,CC(=O)OCC(=O)[C@@]1(O)CC[C@H]2[C@@H]3CCC4=CC(=O)C=C[C@]4(C)[C@H]3[C@@H](O)C[C@@]21C [Prednisolone acetate (Omnipred)],-1.13
11,C[C@]12C=CC(=O)C=C1CC[C@@H]1[C@@H]2C(=O)C[C@@]2(C)[C@H]1CC[C@]2(O)C(=O)CO [Prednisone (Adasone)],28.4
12,CCCNC(C)C(=O)Nc1ccccc1C (centres unmarked) [Prilocaine],7.71
13,CCC1(c2ccccc2)C(=O)NCNC1=O [Primidone (Mysoline)],27.9
14,CC(=O)[C@H]1CC[C@H]2[C@@H]3CCC4=CC(=O)CC[C@]4(C)[C@H]3CC[C@]12C [Progesterone (Prometrium)],7.11
15,O=c1c(-c2ccc(O)cc2)coc2c([C@@H]3O[C@H](CO)[C@@H](O)[C@H](O)[C@H]3O)c(O)ccc12 [Puerarin (Kakonein)],-3.03
16,NC(=O)c1cnccn1 [Pyrazinamide (Pyrazinoic acid amide)],15.2
17,CN(C)C(=O)Oc1ccc[n+](C)c1 [Pyridostigmine Bromide (Mestinon)],35.3
18,CCc1nc(N)nc(N)c1-c1ccc(Cl)cc1 [Pyrimethamine],-0.769
19,OCCOCCN1CCN(C2=Nc3ccccc3Sc3ccccc32)CC1 [Quetiapine fumarate (Seroquel)],0.552
20,C=C[C@H]1CN2CC[C@H]1C[C@H]2[C@H](O)c1ccnc2ccc(OC)cc12 [Quinine hydrochloride dihydrate],-0.947
21,CC(=O)SCC(Cc1ccccc1)C(=O)NCC(=O)OCc1ccccc1 (centres unmarked) [Racecadotril (Acetorphan)],-7.37

row,Compound,inhibition at 10 µM [%]
1,Cc1nnc(C(=O)NC(C)(C)c2nc(C(=O)NCc3ccc(F)cc3)c(O)c(=O)n2C)o1 [Raltegravir (MK-0518)],8.86
2,CCC(=O)NCC[C@@H]1CCc2ccc3c(c21)CCO3 [Ramelteon (TAK-375)],-3.3
3,CCOC(=O)[C@H](CCc1ccccc1)N[C@@H](C)C(=O)N1[C@H](C(=O)O)C[C@@H]2CCC[C@@H]21 [Ramipril (Altace)],-0.755
4,CN/C(=C\[N+](=O)[O-])NCCSCc1ccc(CN(C)C)o1 [Ranitidine (Zantac)],1.37
5,CO[C@H]1C[C@@H]2CC[C@@H](C)[C@@](O)(O2)C(=O)C(=O)N2CCCC[C@H]2C(=O)O[C@H]([C@H](C)C[C@@H]2CC[C@@H](O)[C@H](OC)C2)CC(=O)[C@H](C)/C=C(\C)[C@@H](O)[C@@H](OC)C(=O)[C@H](C)C[C@H](C)/C=C/C=C/C=C/1C [Rapamycin (Sirolimus)],-1.51
6,CCOc1cc(CC(=O)N[C@@H](CC(C)C)c2ccccc2N2CCCCC2)ccc1C(=O)O [Repaglinide],-4.69
7,COC(=O)[C@H]1[C@H]2C[C@@H]3c4[nH]c5cc(OC)ccc5c4CCN3C[C@H]2C[C@@H](OC(=O)c2cc(OC)c(OC)c(OC)c2)[C@@H]1OC [Reserpine],24
8,Oc1ccc(/C=C/c2cc(O)cc(O)c2)cc1 [Resveratrol],22.8
9,O=C(O)c1cc(O)c2c(c1)C(=O)c1cccc(O)c1C2=O [Rhein (Monorhein)],5.39
10,COc1cc(O)c2c(c1)C(=O)c1cc(C)cc(O)c1C2=O [Rheochrysidin (Physcione)],18.7
11,NC(=O)c1ncn([C@@H]2O[C@H](CO)[C@@H](O)[C@H]2O)n1 [Ribavirin (Copegus)],12.3
12,Cc1cc2nc3c(=O)[nH]c(=O)nc-3n(C[C@H](O)[C@H](O)[C@H](O)CO)c2cc1C [Riboflavin (Vitamin B2)],1.7
13,CO[C@H]1/C=C/O[C@@]2(C)Oc3c(C)c(O)c4c(O)c(c5c(c4c3C2=O)=NC2(CCN(CC(C)C)CC2)N=5)NC(=O)/C(C)=C\C=C\[C@H](C)[C@H](O)[C@@H](C)[C@@H](O)[C@@H](C)[C@H](OC(C)=O)[C@@H]1C [Rifabutin (Mycobutin)],-2.35
14,CO[C@H]1/C=C/O[C@@]2(C)Oc3c(C)c(O)c4c(O)c(c(/C=N/N5CCN(C6CCCC6)CC5)c(O)c4c3C2=O)NC(=O)/C(C)=C\C=C\[C@H](C)[C@H](O)[C@@H](C)[C@@H](O)[C@@H](C)[C@H](OC(C)=O)[C@@H]1C [Rifapentine (Priftin)],9.26
15,CO[C@H]1/C=C/O[C@@]2(C)Oc3c(C)c(O)c4c(O)c(c5c(nc6cc(C)ccn65)c4c3C2=O)NC(=O)/C(C)=C\C=C\[C@H](C)[C@H](O)[C@@H](C)[C@@H](O)[C@@H](C)[C@H](OC(C)=O)[C@@H]1C [Rifaximin (Xifaxan)],1.93
16,Nc1nc2ccc(OC(F)(F)F)cc2s1 [Riluzole (Rilutek)],40.9
17,O=P(O)(O)C(O)(Cc1cccnc1)P(=O)(O)O [Risedronate sodium],4.5
18,Cc1nc2n(c(=O)c1CCN1CCC(c3noc4cc(F)ccc34)CC1)CCCC2 [Risperidone (Risperdal)],23.7
19,CC(C)c1nc(CN(C)C(=O)N[C@H](C(=O)N[C@@H](Cc2ccccc2)C[C@H](O)[C@H](Cc2ccccc2)NC(=O)OCc2cncs2)C(C)C)cs1 [Ritonavir],-1.84
20,CN(C)CCc1c[nH]c2ccc(Cn3cncn3)cc12 [Rizatriptan Benzoate (Maxalt)],14.3
